# Data as given in BindingDB's records for patent US20240287022 (Merck Sharp & Dohme, 2024).
# Target: T1, L-amino-acid oxidase (Homo sapiens, UniProt Q96RQ9)
# T1 sequence (Q96RQ9 whole entry): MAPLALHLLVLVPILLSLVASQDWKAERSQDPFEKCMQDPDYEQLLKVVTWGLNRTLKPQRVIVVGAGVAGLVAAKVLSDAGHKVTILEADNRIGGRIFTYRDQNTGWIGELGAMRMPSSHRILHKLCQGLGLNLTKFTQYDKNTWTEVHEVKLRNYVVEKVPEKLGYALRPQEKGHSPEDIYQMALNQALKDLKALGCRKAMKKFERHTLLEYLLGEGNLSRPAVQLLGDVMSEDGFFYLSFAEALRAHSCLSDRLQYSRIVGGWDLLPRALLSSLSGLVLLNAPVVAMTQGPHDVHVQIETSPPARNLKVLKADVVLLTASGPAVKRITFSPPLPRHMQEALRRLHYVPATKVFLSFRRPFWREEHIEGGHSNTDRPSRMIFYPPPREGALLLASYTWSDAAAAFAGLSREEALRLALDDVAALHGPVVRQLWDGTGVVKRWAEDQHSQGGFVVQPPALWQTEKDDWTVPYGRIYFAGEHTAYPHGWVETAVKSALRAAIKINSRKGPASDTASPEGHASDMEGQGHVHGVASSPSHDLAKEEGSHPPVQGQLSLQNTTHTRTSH
# Assay: IL4I1 Enzymatic Assay
# Experimental: nterleukin 4 inducible protein 1 (IL4I1) is an L-amino oxidase that catalyzes the oxidation of aromatic residues (Phe, Trp and Tyr): L-amino acid+H2O+O2→2-oxo acid+NH3+H2O2. Equal molar of H2O2 and the corresponding alpha-ketoacid are produced when IL4I1 and substrate are added. In this assay, the hydrogen peroxide generated by IL4I1 are then detected through a coupled reaction with Amplex Red (10-acetyl-3,7-dihydroxyphenoxazine) and […] (HRP) to produce Resorufin product that could be detected in the form of fluorescence signals. The assessment of the inhibitory effect of small molecules (EC50) on IL4I1 is measured by the effectiveness of the compounds to inhibit the production of H2O2.Using this assay, the potency (EC50) of each compound was determined from a ten-point (1:3 serial dilution; top compound concentration of 10000 nM) titration curve using the following outlined procedure. To each well of a black flat-bottom Greiner (Cat #781076) 384 well-plate, 25 nL of compound (0.1% DMSO in final assay volume of 25 μL) was dispensed, followed by the addition of 12.5 μL of 1× assay buffer (50 mM Hepes 7.0 and 0.005% Tween20 (Sigma, Cat #P8341; low peroxide grade)) containing 2 nM of recombinant IL4I1 (R&D Systems, Cat #5684-AO-020). Plates were placed in an ambient temperature humidified chamber for a four-hour pre-incubation with compound. Subsequently, each reaction was initiated by the addition of 12.5 μL 1× assay buffer containing 2 mM of each aromatic amino acids (Phe/Tyr/Trp), 0.1 mM Amplex Red and 2 U/mL of HRP. The final reaction in each well of 25 μL consists of 1 nM of IL4I1, 1 mM of each residues (Phe, Tyr and Trp), 0.05 mM Amplex Red and 1 U/mL of HRP. It should be noted that the concentrations of Amplex Red and HRP used here are in excess such that the conversion of H2O2 to Resorufin product occurs instantaneously and non-rate limiting.
row,EC50,SMILES
1,8.2 nM,"O=c1[nH]c2ccccc2cc1Cc1ccc(C2(F)CNC2)cc1 [US20240287022, Example 76]"
2,14.4 nM,"N#CCc1ccc(Cc2cc3ccccc3[nH]c2=O)cn1 [US20240287022, Example 93]"
3,1.5 nM,"O=c1[nH]c2ccncc2cc1Cc1ccc2scnc2c1 [US20240287022, Example 114]"
4,154 nM,"Cn1c(=O)c(Cc2ccc(Cc3nnco3)cc2)cc2ccccc21 [US20240287022, Example 145]"
